Key:
[1] = tested on: respiratory depression induced by pain relieving opiates; design: method as in PMID 19907420; settings: single oral dose of 1500 mg, without affecting the pain relieving effects; cited from earlier work
[2] = Metabolic stability in mice plasma extract at 37 °C; type: in vitro ADME; settings: for half-life at 1.67 µg/mL: mouse
Protocol: (§1) To determine the plasma stability and brain stability of these prodrugs, we assayed the pharmacokinetics of the prepared compounds 7a–7f in mice plasma extract and brain homogenate at 37 °C. The pseudo-first order rate constants of disappearance (Ke) of the prodrugs and their half lives (t1/2) which were calculated by linear regression of Ln of peak area against time in minutes are listed in Table 1.
(§2) Blood was drawn from mice though the orbital sinus and was collected in a heparinized tube paved with heparin sodium. Samples were centrifuged at 10,000 rpm for 16 min to separate plasma which was diluted with four volumes of water. The brain was removed and homogenized. Samples were then placed on ice and used immediately. Ten μL acetonitrile solution (10 μg/mL) of the compound was added to 50 μL of plasma or brain homogenate and gently vortexed. Samples were incubated at 37 °C and aliquots were removed after 0, 5, 15, 30, 60 and 90 min, respectively. One hundred μL acetonitrile was added to each and vortexed. Samples were centrifuged for 10 min to remove proteins and the supernatants were analyzed by LC-MS/MS method as described.

[3] = Metabolic stability in mice brain homogenate at 37 °C; type: in vitro ADME; settings: for half-life at 1.67 µg/mL: mouse, mouse brain homogenate
Protocol: as §1, §2

[4] = Pharmacokinetics of LCX001 in plasma after i.v. administration; type: in vivo, Kunming mice; settings: mice
Protocol: The compounds were injected through the caudal vein of the mice with a single dose equivalent to 1 mg/kg body weight of LCX001, and then blood was collected to analyze the concentration of LCX001 at different intervals by an LC-MS/MS method.
Mice were randomly divided into two groups, 27 in each group, for different sampling times and housed in one cage. Each animal was injected with 7e or LCX001 in 20% w/v hydroxypropyl-β-cyclodextrin and saline (0.45%) solution through the tail vein at a single dose equivalent to 1 mg/kg body weight of LCX001. At appropriate time intervals (5, 10, 30, 45, 60, 90, 120, 240 and 480 min), the animals were sacrificed and 1 mL blood samples withdrawn from the orbital sinus were collected in heparinized tubes. Fifty μL plasma was immediately separated by centrifugation, diluted with 200 μL methanol and stored at −20 °C until assay. Meanwhile, the brain was removed, weighed, homogenized and diluted with methanol to 1:5 (g/mL). The homogenates were also stored at −20 °C until assay. Internal standard (200 ng/mL) was added to the samples. The samples were vortexed for 3 min and then centrifuged at 9500 rpm for 15 min. […] Ten μL samples were analyzed by LC-MS/MS method as described.
The Cmax, AUC0-t, Tmax, MRT0-t and t1/2 were calculated by WinNonlin software (version 5.2.1, Pharsight, Mountain View, CA, USA). […]

[5] = Brain distribution of LCX001 after i.v. administration; type: in vivo, Kunming mice; settings: mice; for AUC0-t: LCX001 in brain, single dose equivalent to 1 mg/kg LCX001, n = 3
Text: To further evaluate the possibility of prodrug 7e being transported across the BBB, the brain distribution of prodrug 7e and LCX001 after injection were detected at fixed time intervals. […] The AUC0-t for prodrug 7e was enhanced to 2.23 times that of LCX001. The MRT0-t was increased to 3.29 times that of LCX001. […] This agreed well with the fact that the “lock-in” effect and sustained release effect of the prodrug 7e could effectively delay the clearance of LCX001.
Mice were randomly divided into two groups, 27 in each group, for different sampling times and housed in one cage. Each animal was injected with 7e or LCX001 in 20% w/v hydroxypropyl-β-cyclodextrin and saline (0.45%) solution through the tail vein at a single dose equivalent to 1 mg/kg body weight of LCX001. At appropriate time intervals (5, 10, 30, 45, 60, 90, 120, 240 and 480 min), the animals were sacrificed and 1 mL blood samples withdrawn from the orbital sinus were collected in heparinized tubes. Fifty μL plasma was immediately separated by centrifugation, diluted with 200 μL methanol and stored at −20 °C until assay. Meanwhile, the brain was removed, weighed, homogenized and diluted with methanol to 1:5 (g/mL). The homogenates were also stored at −20 °C until assay. Internal standard (200 ng/mL) was added to the samples. The samples were vortexed for 3 min and then centrifuged at 9500 rpm for 15 min. Fifty μL supernatants were withdrawn, then 50 μL of water was added to each aliquot and vortexed. Ten μL samples were analyzed by LC-MS/MS method as described.
The Cmax, AUC0-t, Tmax, MRT0-t and t1/2 were calculated by WinNonlin software (version 5.2.1, Pharsight, Mountain View, CA, USA). Statistical evaluation was performed using analysis of variance followed by t-test. A value of p < 0.05 was considered significant.

opiate poisoned mice = test: Model of opiate-induced respiratory depression (030418-induced), mortality of mice; type: in vivo, Kunming mice; settings: for Death Rate: 10 min before 030418 15 mg/kg sc
Protocol: To investigate the effect of 7e on opiate-induced respiratory depression, we proceeded with a preliminary pharmacodynamic study in mice. […] Varying doses of prodrug 7e were administered 10 min before 030418 administration. The effect of prodrug 7e and LCX001 on opiate-induced respiratory depression was evaluted by the mortality of mice. […] Further pharmacodynamic studies are currently underway.
A total of 80 male Kunming mice weighing 20–22 g were used in this study. Animals were fed ad libitum with a commercial rodent feed and had free access to drinking water. All animals received human care, and the study protocols complied with the guidelines of the animal center of academy of military medical sciences. Throughout the experiments, the animals were handled according to the international ethical guidelines for the care of laboratory animals.
Respiratory depression in conscious mice was induced by hypodermic (15 mg/kg) administration of 030418. Ten min prior to 030418 administration, animals were randomly assigned to the experimental groups and received an intravenous injection of either saline solution (control), LCX001 (10 mg/kg), prodrug 7e (30 mg/kg, 10 mg/kg, 3 mg/kg, 1 mg/kg or 0.5 mg/kg) (Table 4).
During the experiment, the poisoning time, poisoning symptoms and death time were recorded. The death rate (death number/sample number) was used to evaluate the effect of 7e on opiate-induced respiratory depression.

[6] = tested on: field excitatory postsynaptic potential (EPSP) in the rat dentate gyrus; design: method as in earlier work; settings: cited from earlier work
[7] = tested on: damphetamine- stimulated locomotion; design: method as in earlier work; settings: behavioral testing; cited from earlier work

Row | Structure (SMILES) | Ke, pseudo-first order rate constant of disappearance [2] | half-life at 1.67 µg/mL [2] | Ke, pseudo-first order rate constant of disappearance [3] | half-life at 1.67 µg/mL [3] | melting point | also measured
1 | O=C(c1ccc2nonc2c1)N1CCOCC1 [CX717] |  |  |  |  |  | Effect on opiate-induced respiratory depression [1]: positive effects
2 | CCSS/C(CCOC(=O)CCCC(=O)O[C@H]1CC[C@H](N(C)C(=O)c2ccc3nonc3c2)CC1)=C(/C)N(C)C=O [Compound 7a, S-3-(Ethyldisulfanyl)-4-(N-methylformamido)pent-3-en-1-yl((1R,4R)-4-(N-methylbenzo[c][1,2,5]oxadiazole-5-carboxamido)cyclohexyl) glutarate] | 31.1 min^−1 (×10^−2) | 2.23 min | 19.9 min^−1 (×10^−2) | 3.48 min | 78.8 to 79.5 °C | 
3 | CCCSS/C(CCOC(=O)CCCC(=O)O[C@H]1CC[C@H](N(C)C(=O)c2ccc3nonc3c2)CC1)=C(/C)N(C)C=O [Compound 7b, S-3-(Propyldisulfanyl)-4-(N-methylformamido)pent-3-en-1-yl((1R,4R)-4-(N-methylbenzo[c][1,2,5]oxadiazole-5-carboxamido)cyclohexyl) glutarate] | 7.06 min^−1 (×10^−2) | 9.82 min | 6.82 min^−1 (×10^−2) | 10.2 min | 78 to 79.3 °C | 
4 | CCCCSS/C(CCOC(=O)CCCC(=O)O[C@H]1CC[C@H](N(C)C(=O)c2ccc3nonc3c2)CC1)=C(/C)N(C)C=O [Compound 7c, S-3-(Butyldisulfanyl)-4-(N-methylformamido)pent-3-en-1-yl((1R,4R)-4-(N-methylbenzo[c][1,2,5]oxadiazole-5-carboxamido)cyclohexyl) glutarate] | 6.77 min^−1 (×10^−2) | 10.2 min | 4.05 min^−1 (×10^−2) | 17.1 min | 67.6 to 68.4 °C | 
5 | CCCCCSS/C(CCOC(=O)CCCC(=O)O[C@H]1CC[C@H](N(C)C(=O)c2ccc3nonc3c2)CC1)=C(/C)N(C)C=O [Compound 7d, S-3-(Amyldisulfanyl)-4-(N-methylformamido)pent-3-en-1-yl((1R,4R)-4-(N-methylbenzo[c][1,2,5]oxadiazole-5-carboxamido)cyclohexyl) glutarate] | 4.50 min^−1 (×10^−2) | 15.4 min | 6.34 min^−1 (×10^−2) | 10.9 min | 69.3 to 70.3 °C | 
6 | C/C(=C(\CCOC(=O)CCCC(=O)O[C@H]1CC[C@H](N(C)C(=O)c2ccc3nonc3c2)CC1)SSCCC(C)C)N(C)C=O [Compound 7e, S-3-(Isoamyldisulfanyl)-4-(N-methylformamido)pent-3-en-1-yl((1R,4R)-4-(N-methylbenzo[c][1,2,5]oxadiazole-5-carboxamido)cyclohexyl) glutarate] | 4.34 min^−1 (×10^−2) | 16 min | 3.69 min^−1 (×10^−2) | 18.8 min |  | MRT of LCX001 in plasma, times that of LCX001 [4]: 0.77 times; AUC0-t [5]: 1125.49 ± 336.57 * h·ng/g; AUC0-t of LCX001 in brain, times that of LCX001 ([5]; brain): 2.23 times; MRT0-t of LCX001 in brain, times that of LCX001 ([5]; brain): 3.29 times; Required molar dose relative to LCX001 to achieve the same effect (opiate poisoned mice; 3 mg/kg 7e gave the same effect as 10 mg/kg LCX001 on reducing mortality): one eighth; Death Rate (opiate poisoned mice; iv 0.5 mg/kg): 50%; Death Rate (opiate poisoned mice; iv 1 mg/kg): 30%; Death Rate (opiate poisoned mice; iv 3 mg/kg): 20%; Death Rate (opiate poisoned mice; iv 10 mg/kg): 0%; Death Rate (opiate poisoned mice; iv 30 mg/kg): 0%
7 | C/C(=C(\CCOC(=O)CCCC(=O)O[C@H]1CC[C@H](N(C)C(=O)c2ccc3nonc3c2)CC1)SSCc1ccccc1)N(C)C=O [Compound 7f, S-3-(Benzyldisulfanyl)-4-(N-methylformamido)pent-3-en-1-yl((1R,4R)-4-(N-methylbenzo[c][1,2,5]oxadiazole-5-carboxamido)cyclohexyl) glutarate] | 4.48 min^−1 (×10^−2) | 15.5 min | 5.78 min^−1 (×10^−2) | 12 min | 72.9 to 73.8 °C | 
8 | CN(C(=O)c1ccc2nonc2c1)[C@H]1CC[C@H](O)CC1 [LCX001] |  |  |  |  |  | AUC0-t [5]: 504.32 ± 204.71 ng·h/g; Death Rate (opiate poisoned mice; iv 10 mg/kg): 20%; Increase in amplitude of the field EPSP [6]: 21%; Inhibition of d-amphetamine-stimulated locomotion [7]: 100%
